{
  "source": "patent US10550109B2",
  "about": "“Crystal form of brexpiprazole and preparation method therefor” (Zhejiang Huahai Pharmaceutical Co., Ltd, priority 2016, dated 2020)",
  "test": "Comparison of stability (water content over time) of brexpiprazole solid forms at 25° C. and 60% ambient humidity",
  "format": "physicochemical",
  "procedure": "The comparation of the stability of brexpiprazole in the crystal form I, the dihydrated crystal form, the anhydrous crystal form and the amorphous form is shown in Table 1. The test in Table 1 was carried out at 25° C. and 60% ambient humidity.",
  "data": [
    {"smiles": "O=c1ccc2ccc(OCCCCN3CCN(c4cccc5sccc45)CC3)cc2[nH]1", "note": "[Dihydrated crystal form, 7-[4-(4-benzo[b]thiophen-4-yl-piperazin-1-yl)butoxy]-1H-quinolin-2-one dihydrate]", "values": [
      {"measurement": "Water Content (after 1 month)", "setting": "dihydrate", "value": 6.90, "unit": "wt. %"},
      {"measurement": "Water Content (after 2 months)", "setting": "dihydrate", "value": 7.10, "unit": "wt. %"},
      {"measurement": "Water Content (after 3 months)", "setting": "dihydrate", "value": 7.50, "unit": "wt. %"},
      {"measurement": "Water Content (initial)", "setting": "dihydrate", "value": 6.74, "unit": "wt. %"}
    ]},
    {"smiles": "O=c1ccc2ccc(OCCCCN3CCN(c4cccc5sccc45)CC3)cc2[nH]1", "note": "[Anhydrous crystal form, 7-[4-(4-benzo[b]thiophen-4-yl-piperazin-1-yl)butoxy]-1H-quinolin-2-one]", "values": [
      {"measurement": "Water Content (after 1 month)", "value": 0.09, "unit": "wt. %"},
      {"measurement": "Water Content (after 2 months)", "value": 0.21, "unit": "wt. %"},
      {"measurement": "Water Content (after 3 months)", "value": 0.30, "unit": "wt. %"},
      {"measurement": "Water Content (initial)", "value": 0.02, "unit": "wt. %"}
    ]},
    {"smiles": "O=c1ccc2ccc(OCCCCN3CCN(c4cccc5sccc45)CC3)cc2[nH]1", "note": "[Amorphous form, 7-{4-[4-(1-benzothiophen-4-yl)piperazin-1-yl]butoxy}-1H-quinolin-2-one]", "values": [
      {"measurement": "Water Content (after 1 month)", "value": 0.13, "unit": "wt. %"},
      {"measurement": "Water Content (after 2 months)", "value": 0.22, "unit": "wt. %"},
      {"measurement": "Water Content (after 3 months)", "value": 0.40, "unit": "wt. %"},
      {"measurement": "Water Content (initial)", "value": 0.02, "unit": "wt. %"}
    ]},
    {"smiles": "O=c1ccc2ccc(OCCCCN3CCN(c4cccc5sccc45)CC3)cc2[nH]1", "note": "[Crystal form I, 7-{4-[4-(1-benzothiophen-4-yl)piperazin-1-yl]butoxy}-1H-quinolin-2-one]", "values": [
      {"measurement": "Water Content (after 1 month)", "value": 1.27, "unit": "wt. %"},
      {"measurement": "Water Content (after 2 months)", "value": 1.26, "unit": "wt. %"},
      {"measurement": "Water Content (after 3 months)", "value": 1.27, "unit": "wt. %"},
      {"measurement": "Water Content (initial)", "value": 1.24, "unit": "wt. %"}
    ]}
  ]
}
